Assay [1] addresses human RORγt ligand binding domain (RORγt LBD) (Homo sapiens (Human), UniProt P51449). In words: RORγt ThermoFluor assay. On the technique in general: Differential scanning fluorimetry follows unfolding on heating by fluorescence.
In assay [2] the target is full-length human RORγt (GAL4-DBD-RORγt fusion) in HEK293T cells (Homo sapiens (Human), UniProt P51449). Put plainly: RORγt (full-length human) reporter assay, conditions A or B. As to conditions: for IC50: HEK293T cells, read-out: RORγt (FL) Reporter Assay A or B, IC50; for inhibition at 3 µM: 3 μM compound concentration (footnote *); for inhibition at 6 µM: 6 μM compound, read-out: RORγt (FL) Reporter Assay A or B, % inhibition @ 6 μM; for inhibition at 2 µM: 2 μM compound concentration. In kind it is cell-based. In short, it runs like this:
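HEK293T cells expressing GAL4-DBD-RORγt fusion (96- or 384-well formats, DMEM/10% FBS) exposed to compound overnight (16–20 h). Firefly luciferase normalized to DMSO and saturating reference compound, then to Renilla; IC50 from dose curve, % inhibition versus DMSO.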
(A reporter such as luciferase makes a cellular process visible.)

The mark [3] stands for this setting: HEK-293T, read-out: RORγt (FL) Reporter Assay A or B, % inhibition.

Sequence of full-length human RORγt (GAL4-DBD-RORγt fusion) in HEK293T cells (P51449 other isoform, or with tags, fused parts or gaps): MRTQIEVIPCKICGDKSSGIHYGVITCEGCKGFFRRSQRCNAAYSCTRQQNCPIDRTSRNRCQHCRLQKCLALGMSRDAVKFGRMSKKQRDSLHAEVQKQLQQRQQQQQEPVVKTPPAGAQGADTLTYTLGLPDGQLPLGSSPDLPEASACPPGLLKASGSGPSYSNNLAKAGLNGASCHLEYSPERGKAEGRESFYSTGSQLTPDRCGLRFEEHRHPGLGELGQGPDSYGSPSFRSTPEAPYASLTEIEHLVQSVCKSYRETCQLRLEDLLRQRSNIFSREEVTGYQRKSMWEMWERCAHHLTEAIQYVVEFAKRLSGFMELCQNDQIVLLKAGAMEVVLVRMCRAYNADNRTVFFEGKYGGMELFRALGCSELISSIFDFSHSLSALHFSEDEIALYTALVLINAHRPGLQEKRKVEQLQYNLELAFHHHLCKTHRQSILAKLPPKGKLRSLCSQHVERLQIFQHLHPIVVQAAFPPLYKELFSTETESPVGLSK
Sequence of human RORγt ligand binding domain (RORγt LBD) (P51449 other isoform, or with tags, fused parts or gaps): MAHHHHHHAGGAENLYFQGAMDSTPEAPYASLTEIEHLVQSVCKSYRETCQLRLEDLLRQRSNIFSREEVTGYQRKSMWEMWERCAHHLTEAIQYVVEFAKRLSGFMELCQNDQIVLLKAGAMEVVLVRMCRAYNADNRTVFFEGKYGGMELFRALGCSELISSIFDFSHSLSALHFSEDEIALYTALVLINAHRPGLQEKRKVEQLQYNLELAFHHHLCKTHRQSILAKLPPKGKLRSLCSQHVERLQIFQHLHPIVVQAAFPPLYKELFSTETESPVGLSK

Turning to `CCn1nc(C(=O)NC[C@]2(O)CC[C@@H](S(C)(=O)=O)CC2)c(Cl)c1-c1cnc(CC(C)(C)C(F)F)cc1OC(F)F` [Example 38, 4-Chloro-5-(6-(3,3-difluoro-2,2-dimethylpropyl)-4-(difluoromethoxy)pyridin-3-yl)-1-ethyl-N-(((1s,4s)-1-hydroxy-4-(methylsulfonyl)cyclohexyl)methyl)-1H-pyrazole-3-carboxamide], the affinity in assay [1], expressed as Kd, was 15 nM. In addition, in assay [2], the half-maximal inhibitory concentration (IC50) (as a rule, the concentration that gives 50% inhibition) is 220 nM. Further, the inhibition (as a rule, the drop in the measured response relative to a control, in per cent) at 3 µM in assay [2] (setting [3]) was 88%.

Regarding `CCn1nc(C(=O)NC[C@H]2CC[C@H](S(C)(=O)=O)CC2)c(C)c1-c1cnc(CC(C)(C)C(F)F)cc1OC(F)F` [Example 41, 5-(6-(3,3-Difluoro-2,2-dimethylpropyl)-4-(difluoromethoxy)pyridin-3-yl)-1-ethyl-4-methyl-N-(((1r,4r)-4-(methylsulfonyl)cyclohexyl)methyl)-1H-pyrazole-3-carboxamide], binding in assay [1] was put at a Kd of 6.9 nM. Moreover, the IC50 in assay [2] was found to be 45 nM. In assay [2] (setting [3]), the inhibition at 3 µM was found to be 102%.

On to `CCn1nc(C(=O)NC[C@]2(O)CC[C@@H](S(C)(=O)=O)CC2)c(C)c1-c1cnc(CC(C)(C)C(F)F)cc1OC(F)F` [Example 42, 5-(6-(3,3-Difluoro-2,2-dimethylpropyl)-4-(difluoromethoxy)pyridin-3-yl)-1-ethyl-N-(((1s,4s)-1-hydroxy-4-(methylsulfonyl)cyclohexyl)methyl)-4-methyl-1H-pyrazole-3-carboxamide], for which the Kd (commonly the equilibrium constant for the complex coming apart) in assay [1] worked out at 35 nM. For the same compound, in assay [2], the IC50 turned out to be 430 nM. Further, in assay [2] (setting [3]), the inhibition at 3 µM was 95%.

Take `CCn1nc(C(=O)NC[C@H]2CC[C@H](S(C)(=O)=O)CC2)c(Cl)c1-c1ccc(CC(C)(C)C(F)(F)F)nc1OC(F)F` [Example 45, 4-Chloro-5-(2-(difluoromethoxy)-6-(3,3,3-trifluoro-2,2-dimethylpropyl)pyridin-3-yl)-1-ethyl-N-(((1r,4r)-4-(methylsulfonyl)cyclohexyl)methyl)-1H-pyrazole-3-carboxamide]: the Kd in assay [1] came to 0.35 nM. In assay [2], the IC50 came out at 11 nM. Further, the inhibition at 3 µM in assay [2] (setting [3]) turned out to be 86%.

Take `CCn1nc(C(=O)NC[C@]2(O)CC[C@@H](S(C)(=O)=O)CC2)c(Cl)c1-c1ccc(CC(C)(C)C(F)(F)F)nc1OC(F)F` [Example 46, 4-Chloro-5-(2-(difluoromethoxy)-6-(3,3,3-trifluoro-2,2-dimethylpropyl)pyridin-3-yl)-1-ethyl-N-(((1s,4s)-1-hydroxy-4-(methylsulfonyl)cyclohexyl)methyl)-1H-pyrazole-3-carboxamide]: the dissociation constant (Kd) in assay [1] amounted to 0.66 nM. Moreover, the concentration for half-maximal inhibition (IC50) in assay [2] was determined as 89 nM. The inhibition at 3 µM in assay [2] (setting [3]) amounted to 97%.

Consider `CCn1nc(C(=O)NC[C@H]2CC[C@H](S(C)(=O)=O)CC2)c(C)c1-c1ccc(CC(C)(C)C(F)(F)F)nc1OC(F)F` [Example 49, 5-(2-(Difluoromethoxy)-6-(3,3,3-trifluoro-2,2-dimethylpropyl)pyridin-3-yl)-1-ethyl-4-methyl-N-(((1r,4r)-4-(methylsulfonyl)cyclohexyl)methyl)-1H-pyrazole-3-carboxamide], for which the affinity in assay [1], expressed as Kd, was 0.28 nM. For the same compound, the 50% inhibitory concentration (IC50) in assay [2] amounted to 6.4 nM. The inhibition at 3 µM in assay [2] (setting [3]) stood at 106%.

Regarding `CCn1nc(C(=O)NC[C@]2(O)CC[C@@H](S(C)(=O)=O)CC2)c(C)c1-c1ccc(CC(C)(C)C(F)(F)F)nc1OC(F)F` [Example 50, 5-(2-(Difluoromethoxy)-6-(3,3,3-trifluoro-2,2-dimethylpropyl)pyridin-3-yl)-1-ethyl-N-(((1s,4s)-1-hydroxy-4-(methylsulfonyl)cyclohexyl)methyl)-4-methyl-1H-pyrazole-3-carboxamide], in assay [1], binding was characterised by a dissociation constant (Kd) of 1.3 nM. Besides, in assay [2], the half-inhibitory concentration (IC50) was 20 nM. Besides, in assay [2] (HEK-293T, 1 μM compound concentration (footnote ***), read-out: RORγt (FL) Reporter Assay A or B, % inhibition), the inhibition at 1 µM is 100%.

`CCn1nc(C(=O)NC[C@H]2CC[C@H](S(C)(=O)=O)CC2)c(Cl)c1-c1ncc(CC(C)(C)C(F)(F)F)cc1OC(F)F` [Example 52, 4-Chloro-5-(3-(difluoromethoxy)-5-(3,3,3-trifluoro-2,2-dimethylpropyl)pyridin-2-yl)-1-ethyl-N-(((1r,4r)-4-(methylsulfonyl)cyclohexyl)methyl)-1H-pyrazole-3-carboxamide] showed a dissociation constant (Kd) in assay [1] of 4.7 nM. Moreover, the concentration for half-maximal inhibition (IC50) in assay [2] was found to be 58 nM. In addition, the inhibition at 3 µM in assay [2] (setting [3]) was found to be 85%.

In the case of `CCn1nc(C(=O)NC[C@]2(O)CC[C@@H](S(C)(=O)=O)CC2)c(Cl)c1-c1ncc(CC(C)(C)C(F)(F)F)cc1OC(F)F` [Example 53, 4-Chloro-5-(3-(difluoromethoxy)-5-(3,3,3-trifluoro-2,2-dimethylpropyl)pyridin-2-yl)-1-ethyl-N-(((1s,4s)-1-hydroxy-4-(methylsulfonyl)cyclohexyl)methyl)-1H-pyrazole-3-carboxamide], the dissociation constant Kd in assay [1] was found to be 18 nM. Moreover, the IC50 in assay [2] is 250 nM. For the same compound, in assay [2] (setting [3]), the inhibition at 3 µM turned out to be 83%.

Consider `CCn1nc(C(=O)NC[C@H]2CC[C@H](S(C)(=O)=O)CC2)c(Cl)c1-c1cnc(CC(C)(C)C(F)(F)F)cc1C(C)(F)F` [Example 54, 4-Chloro-5-(4-(1,1-difluoroethyl)-6-(3,3,3-trifluoro-2,2-dimethylpropyl)pyridin-3-yl)-1-ethyl-N-(((1r,4r)-4-(methylsulfonyl)cyclohexyl)methyl)-1H-pyrazole-3-carboxamide], for which, in assay [1], binding was put at a Kd of 13 nM. Also, the IC50 in assay [2] came out at 240 nM. Moreover, in assay [2] (setting [3]), the inhibition at 3 µM is 42%.

In turn, `CCc1cc(CC(C)(C)C(F)(F)F)ncc1-c1c(Cl)c(C(=O)NC[C@]2(O)CC[C@@H](S(C)(=O)=O)CC2)nn1CC` [Example 55, 4-Chloro-1-ethyl-5-(4-ethyl-6-(3,3,3-trifluoro-2,2-dimethylpropyl)pyridin-3-yl)-N-(((1s,4s)-1-hydroxy-4-(methylsulfonyl)cyclohexyl)methyl)-1H-pyrazole-3-carboxamide] registered a dissociation constant Kd in assay [1] of 30 nM. Besides, the 50% inhibitory concentration (IC50) in assay [2] was found to be 280 nM. Moreover, in assay [2] (setting [3]), the inhibition at 3 µM is 78%.

Turning to `CCc1cc(CCC(C)(C)C)ncc1-c1c(Cl)c(C(=O)NC[C@]2(O)CC[C@@H](S(C)(=O)=O)CC2)nn1CC` [Example 59, 4-Chloro-5-(6-(3,3-dimethylbutyl)-4-ethylpyridin-3-yl)-1-ethyl-N-(((1s,4s)-1-hydroxy-4-(methylsulfonyl)cyclohexyl)methyl)-1H-pyrazole-3-carboxamide], in assay [1], the Kd stood at 35 nM. In addition, the concentration for half-maximal inhibition (IC50) in assay [2] was determined as 210 nM. Moreover, in assay [2] (setting [3]), the inhibition at 3 µM was 82%.

Turning to `CCn1nc(C(=O)NC[C@H]2CC[C@H](S(C)(=O)=O)CC2)c(Cl)c1-c1cnc(CC(C)C(F)(F)F)cc1OC` (stereo partly drawn) [Example 60, 4-Chloro-1-ethyl-5-(4-methoxy-6-(3,3,3-trifluoro-2-methylpropyl)pyridin-3-yl)-N-(((1r,4r)-4-(methylsulfonyl)cyclohexyl)methyl)-1H-pyrazole-3-carboxamide], the dissociation constant (Kd) in assay [1] stood at 11 nM. Also, in assay [2], the IC50 was 240 nM. Besides, the inhibition at 6 µM in assay [2] (HEK-293T) was 88%.

In turn, `CCn1nc(C(=O)NC[C@]2(O)CC[C@@H](S(C)(=O)=O)CC2)c(Cl)c1-c1cnc(O[C@H](C)C(F)(F)F)cc1OC` [Example 63, 4-Chloro-1-ethyl-N-(((1r,4R)-1-hydroxy-4-(methylsulfonyl)cyclohexyl)methyl)-5-(4-methoxy-6-(((R)-1,1,1-trifluoropropan-2-yl)oxy)pyridin-3-yl)-1H-pyrazole-3-carboxamide] gave a Kd in assay [1] of 12 nM. The IC50 in assay [2] is 140 nM. Besides, the inhibition at 6 µM in assay [2] (HEK-293T) was determined as 86%.

With `CCn1nc(C(=O)NC[C@H]2CC[C@H](S(C)(=O)=O)CC2)c(Cl)c1-c1cnc(O[C@@H](C)C(F)(F)F)cc1OC` [Example 64], binding in assay [1] was put at a Kd of 15 nM. Further, the half-maximal inhibitory concentration (IC50) in assay [2] was found to be 280 nM. Also, the inhibition at 2 µM in assay [2] (setting [3]) was determined as 39%.

As for `CCn1nc(C(=O)NC[C@H]2CC[C@H](S(C)(=O)=O)CC2)c(Cl)c1-c1cnc(O[C@H](C)C(F)(F)F)cc1OC` [Example 65], the Kd in assay [1] came to 12 nM. Besides, in assay [2], the half-inhibitory concentration (IC50) was 41 nM. Moreover, the inhibition at 2 µM in assay [2] (setting [3]) amounted to 75%.

For the origin of these results see US11034658B2, “Pyridinyl pyrazoles as modulators of RORγT” (Janssen Pharmaceutica NV, priority 2018, dated 2021).
